This note sets out measurements from ChEMBL document CHEMBL5360629, “AI-Powered Virtual Screening of Large Compound Libraries Leads to the Discovery of Novel Inhibitors of Sirtuin-1” (J Med Chem, 2023).

Each structure is given as a SMILES string. Calls of active or inactive are those of the source. No cut-off for these calls is given here.

The first test concerns the target T1, NAD-dependent protein deacetylase sirtuin-1 (Homo sapiens) (UniProt Q96EB6).
T1 sequence (whole entry): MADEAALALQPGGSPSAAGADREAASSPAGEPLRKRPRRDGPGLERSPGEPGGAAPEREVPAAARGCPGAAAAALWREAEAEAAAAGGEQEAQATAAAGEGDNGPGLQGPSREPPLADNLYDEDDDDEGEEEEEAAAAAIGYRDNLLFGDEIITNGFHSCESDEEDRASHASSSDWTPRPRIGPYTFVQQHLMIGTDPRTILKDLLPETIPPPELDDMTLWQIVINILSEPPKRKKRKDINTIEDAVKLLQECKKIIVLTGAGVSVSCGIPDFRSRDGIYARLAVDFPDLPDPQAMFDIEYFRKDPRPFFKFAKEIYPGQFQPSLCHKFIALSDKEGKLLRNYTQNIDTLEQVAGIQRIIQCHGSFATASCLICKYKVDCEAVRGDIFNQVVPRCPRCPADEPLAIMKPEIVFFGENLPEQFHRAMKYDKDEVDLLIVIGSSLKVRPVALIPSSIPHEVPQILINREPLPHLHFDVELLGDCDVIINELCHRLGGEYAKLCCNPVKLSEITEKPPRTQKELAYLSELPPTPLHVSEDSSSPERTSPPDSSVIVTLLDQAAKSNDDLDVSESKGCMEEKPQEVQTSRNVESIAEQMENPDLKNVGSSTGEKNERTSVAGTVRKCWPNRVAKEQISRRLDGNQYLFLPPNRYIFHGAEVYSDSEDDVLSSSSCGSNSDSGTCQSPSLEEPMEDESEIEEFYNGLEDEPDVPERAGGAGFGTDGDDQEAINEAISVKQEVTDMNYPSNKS
To be noted: dose 20.0 µM.
Description: Binding affinity to human recombinant truncated Sirtuin-1 expressed in Escherichia coli assessed as change in melting temperature at 20 uM by SYPRO orange dye based thermal shift assay
For orientation: ΔTm means the change in melting temperature against a reference sample. With `O=C(NCCc1c[nH]c2ccccc12)c1ccccc1O`, the thermal shift (ΔTm) is 1.8 °C.
Turning to `O=C(CCc1ccccc1O)NCCc1c[nH]c2ccccc12`, the ΔTm is 12.9 °C.
Consider `NC(=O)c1ccc(N2CCN(C(c3ccccc3)c3ccccc3)CC2)c([N+](=O)[O-])c1`, for which the ΔTm was 1 °C.
`O=S(=O)(NCCc1c[nH]c2ccccc12)c1cc(Cl)cc(Cl)c1`: the ΔTm came out at 1 °C.
As to `O=C(Nc1ccccc1)Nc1ccc(NC(=O)c2ccc(Br)cc2)cc1`, the ΔTm came to 2.1 °C.
For the compound `O=C(CCc1c[nH]c2ccccc12)NNC(=O)CCc1c[nH]c2ccccc12`, the ΔTm was found to be 2.8 °C.
Take `COc1ccc(N2CCN(c3nc(-c4ccccc4)nc4ccccc34)CC2)cc1`: the thermal shift (ΔTm) worked out at 1.6 °C.

A further test addresses T2, NAD-dependent protein deacetylase sirtuin-1 (Homo sapiens, UniProt Q96EB6).
T2 sequence (Q96EB6 whole entry): T1 sequence (whole entry)
The experiment in a line: Inhibition of Sirtuin-1 (unknown origin) incubated for 30 mins by luminogenic SIRT-Glo assay.
Settings: not given
Usually IC50 stands for the concentration that gives 50% inhibition. Low readings indicate inhibition by little substance, high ones a need for much substance. As for `O=C(NCCc1c[nH]c2ccccc12)c1ccccc1O`, the 50% inhibitory concentration (IC50) worked out at 3.4 µM.
In turn, `COc1ccc(N2CCN(c3nc(-c4ccccc4)nc4ccccc34)CC2)cc1` showed a 50% inhibitory concentration (IC50) of 40 µM.

The target of another test is Carbonic anhydrase (Homo sapiens) (UniProt P00918+P43166+P00915+P07451+P23280+O43570+Q9ULX7+Q16790+P22748+Q8N1Q1+Q9Y2D0+P35218). Description: Binding affinity to carbonic anhydrase (unknown origin) assessed as change in melting temperature incubated for 15 mins by Sypro orange staining based thermal scanning analysis. It is filed as protein assay. To be noted: dose 0.01-1000 µM.
As for `O=C(NCCc1c[nH]c2ccccc12)c1ccccc1O`, the Activity entry was “Dose-Dependent Effect”.
In the case of `COc1ccc(N2CCN(c3nc(-c4ccccc4)nc4ccccc34)CC2)cc1`, the result was inactive.
